From ChEMBL document CHEMBL1134456, “Design, synthesis and pharmacological characterization of a potent radioiodinated and photoactivatable peptidic oxytocin antagonist” (J Med Chem, 2001) come the findings set out here.

The target in assay [1] is T1, Oxytocin receptor (Homo sapiens, UniProt P30559).
T1 sequence (P30559 whole entry): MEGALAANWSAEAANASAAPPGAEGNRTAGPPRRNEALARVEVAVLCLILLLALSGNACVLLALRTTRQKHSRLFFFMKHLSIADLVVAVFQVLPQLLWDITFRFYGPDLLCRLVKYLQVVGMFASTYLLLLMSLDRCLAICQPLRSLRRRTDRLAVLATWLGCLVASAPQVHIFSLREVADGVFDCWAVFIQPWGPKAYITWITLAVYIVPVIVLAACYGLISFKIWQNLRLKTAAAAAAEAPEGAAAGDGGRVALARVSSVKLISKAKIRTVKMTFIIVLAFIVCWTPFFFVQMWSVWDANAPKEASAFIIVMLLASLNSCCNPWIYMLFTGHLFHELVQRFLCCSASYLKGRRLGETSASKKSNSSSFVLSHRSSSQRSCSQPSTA
Put plainly: Binding affinity towards OT receptor in CHO cells expressing the human OT receptor. Type of assay: cell-based.

Assay [2] concerns the target T1, Oxytocin receptor. Briefly: Ability to inhibit OT-induced inositol phosphate accumulation was determined in CHO cells expressing the human OT receptor. Type of assay: functional, cell-based.
In assay [3] the target is T1, Oxytocin receptor. Put plainly: Dissociation constant value for human OT-receptor.

pIC50, pKd, pKi: −log10 of the molar value. Starred links: 1 amine or outer side, 2 acyl side, 3 side chain; linkers in the order of their positions; H or OH if unused. Positions of bridges follow the written chain, without caps; N, C: chain ends. Non-standard residues stand in square brackets, D forms with d. Residues, ends and D or L forms follow the SMILES beside them. X1 = [N-]=[N+]=Nc1ccc(C[C@H](N[*:1])C(=O)[*:2])cc1I; X2 = O=C(CC1(S[*:2])CCCCC1)[*:1]; Orn = NCCC[C@H](N)C(=O)O

By pKi is commonly meant the negative decadic logarithm of the Ki, by convention in mol/L. Low values mean a high Ki, high ones a low Ki. Regarding `CC[C@H](C)[C@@H]1NC(=O)[C@H](Cc2ccc(OC)cc2)NC(=O)CC2(CCCCC2)SSC[C@@H](C(=O)NCC(=O)N[C@@H](CCCN)C(=O)N[C@@H](Cc2ccc(N=[N+]=[N-])c(I)c2)C(N)=O)NC(=O)[C@H](CC(N)=O)NC(=O)[C@H]([C@@H](C)O)NC1=O` (Y(Me)ITNCG[Orn][X1]-NH2; linker N-5 via X2), the pKi in assay [1] (cho) was 8.64.

For orientation: pIC50 means −log10 of the IC50, conventionally taken in molar units. Low values mean a high IC50, high ones a low IC50. One may read the pKd as the Kd on a negative log10 scale, so that one unit is a factor of ten. A higher pKd goes with a small Kd. In turn, `CC[C@H](C)[C@@H]1NC(=O)[C@H](Cc2ccc(OC)cc2)NC(=O)CC2(CCCCC2)SSC[C@@H](C(=O)N2CCC[C@H]2C(=O)N[C@@H](CCCN)C(=O)N[C@@H](Cc2ccc(N=[N+]=[N-])c(I)c2)C(N)=O)NC(=O)[C@H](CC(N)=O)NC(=O)[C@H]([C@@H](C)O)NC1=O` (Y(Me)ITNCP[Orn][X1]-NH2; linker N-5 via X2) gave a negative-log IC50 (pIC50) in assay [2] of 9.49. The pKd in assay [3] is 9.60. Moreover, the pKi in assay [1] (cho) is 9.52. As for `CC[C@H](C)[C@@H]1NC(=O)[C@H](Cc2ccc(O)cc2)NC(=O)CC2(CCCCC2)SSC[C@@H](C(=O)NCC(=O)N[C@@H](CCCN)C(=O)N[C@@H](Cc2ccc(N=[N+]=[N-])c(I)c2)C(N)=O)NC(=O)[C@H](CC(N)=O)NC(=O)[C@H]([C@@H](C)O)NC1=O` (YITNCG[Orn][X1]-NH2; linker N-5 via X2), the pKi in assay [1] (cho) is 7.74.

In assay [1], `CC[C@H](C)[C@@H]1NC(=O)[C@H](Cc2ccc(O)cc2)NC(=O)CC2(CCCCC2)SSC[C@@H](C(=O)N2CCC[C@H]2C(=O)N[C@@H](CCCN)C(=O)N[C@@H](Cc2ccc(N=[N+]=[N-])c(I)c2)C(N)=O)NC(=O)[C@H](CC(N)=O)NC(=O)[C@H]([C@@H](C)O)NC1=O` (YITNCP[Orn][X1]-NH2; linker N-5 via X2) showed a pKi of 9.22.
